According to BindingDB's records for doi:10.1016/s0960-894x(01)00096-8 (Seoul National University, 2001):

Molecular target: Isoleucine--tRNA ligase (Escherichia coli) (UniProt P00956)
Sequence (P00956 whole entry, looked up): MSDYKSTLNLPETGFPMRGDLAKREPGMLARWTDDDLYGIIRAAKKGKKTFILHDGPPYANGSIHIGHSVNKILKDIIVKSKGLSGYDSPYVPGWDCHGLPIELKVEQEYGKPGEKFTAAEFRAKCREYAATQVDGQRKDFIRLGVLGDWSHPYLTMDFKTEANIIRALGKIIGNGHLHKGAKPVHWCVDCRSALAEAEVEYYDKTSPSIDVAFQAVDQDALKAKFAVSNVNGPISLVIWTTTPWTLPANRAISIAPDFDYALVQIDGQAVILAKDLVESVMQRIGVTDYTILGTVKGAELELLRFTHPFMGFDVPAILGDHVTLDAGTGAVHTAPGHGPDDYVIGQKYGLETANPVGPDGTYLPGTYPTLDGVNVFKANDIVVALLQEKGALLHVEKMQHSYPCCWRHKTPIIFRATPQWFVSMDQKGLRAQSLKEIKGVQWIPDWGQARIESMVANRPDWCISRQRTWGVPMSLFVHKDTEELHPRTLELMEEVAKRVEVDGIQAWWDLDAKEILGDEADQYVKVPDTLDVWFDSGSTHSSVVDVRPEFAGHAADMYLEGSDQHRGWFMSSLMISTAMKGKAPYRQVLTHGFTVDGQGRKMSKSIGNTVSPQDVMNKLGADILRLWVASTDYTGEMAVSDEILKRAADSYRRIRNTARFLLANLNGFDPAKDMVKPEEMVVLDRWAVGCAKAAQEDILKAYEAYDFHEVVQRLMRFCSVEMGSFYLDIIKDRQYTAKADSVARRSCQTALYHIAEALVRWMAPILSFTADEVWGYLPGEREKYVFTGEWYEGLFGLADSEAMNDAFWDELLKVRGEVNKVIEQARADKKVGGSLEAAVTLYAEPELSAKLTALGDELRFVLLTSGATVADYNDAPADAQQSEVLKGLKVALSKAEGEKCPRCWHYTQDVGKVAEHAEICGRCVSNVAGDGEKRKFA
Test: Inhibitory concentration against isoleucyl-tRNA synthetase was determined by measuring decrease of the aminoacylation product [3H]- isoleucyl tRNA of Escherichia coli
Work on `CCC(C)[C@H](N)C(=O)OC[C@H]1COC(c2ccc(O)c(OC)c2)=N1` (stereo partly drawn) [(S)-1-[(R)-2-(4-Hydroxy-3-methoxy-phenyl)-4,5-dihydro-oxazol-4-ylmethoxycarbonyl]-2-methyl-butyl-ammonium] yielded an IC50 of 50 µM.

Molecular target: Isoleucine--tRNA ligase (Escherichia coli) (UniProt P00956)
Test: as above
Remark: another data set of the same source
Work on `CCC(C)[C@H](N)C(=O)OCCN(O)C(=O)Cc1ccc(OC)c(O)c1` (stereo partly drawn) [(S)-1-(2-{Hydroxy-[2-(3-hydroxy-4-methoxy-phenyl)-acetyl]-amino}-ethoxycarbonyl)-2-methyl-butyl-ammonium] yielded an IC50 of 21 µM.
Work on `CCC(C)[C@H](N)C(=O)OCCN(O)C(=O)Cc1ccc(O)c(OC)c1` (stereo partly drawn) [(S)-1-(2-{Hydroxy-[2-(4-hydroxy-3-methoxy-phenyl)-acetyl]-amino}-ethoxycarbonyl)-2-methyl-butyl-ammonium] yielded an IC50 of 228 µM.
For `CCC(C)[C@H](N)C(=O)OCCNC(=O)c1ccc(OC)c(O)c1` (stereo partly drawn) [(S)-1-[2-(3-Hydroxy-4-methoxy-benzoylamino)-ethoxycarbonyl]-2-methyl-butyl-ammonium], the IC50 was 106 µM.
`CCC(C)[C@H](N)C(=O)OCCNC(=O)c1ccc(O)c(OC)c1` (stereo partly drawn) [(S)-1-[2-(4-Hydroxy-3-methoxy-benzoylamino)-ethoxycarbonyl]-2-methyl-butyl-ammonium] gave an IC50 of 64.4 µM.
Compound `CCC(C)[C@H](N)C(=O)OCC1CC(c2ccc(OC)c(O)c2)=NO1` (stereo partly drawn) [(S)-1-[3-(3-Hydroxy-4-methoxy-phenyl)-4,5-dihydro-isoxazol-5-ylmethoxycarbonyl]-2-methyl-butyl-ammonium] has an IC50 of 57.6 µM.
For `CCC(C)[C@H](N)C(=O)OCC1CC(c2ccc(O)c(OC)c2)=NO1` (stereo partly drawn) [(S)-1-[3-(4-Hydroxy-3-methoxy-phenyl)-4,5-dihydro-isoxazol-5-ylmethoxycarbonyl]-2-methyl-butyl-ammonium], the IC50 was 79 µM.
Work on `CCC(C)[C@H](N)C(=O)OC[C@@H]1COC(c2ccc(O)c(OC)c2)=N1` (stereo partly drawn) [(S)-1-[(S)-2-(4-Hydroxy-3-methoxy-phenyl)-4,5-dihydro-oxazol-4-ylmethoxycarbonyl]-2-methyl-butyl-ammonium] yielded an IC50 of 38.6 µM.
For `CCC(C)[C@H](N)C(=O)OCCNC(=O)Cc1ccc(OC)c(O)c1` (stereo partly drawn) [(S)-1-{2-[2-(3-Hydroxy-4-methoxy-phenyl)-acetylamino]-ethoxycarbonyl}-2-methyl-butyl-ammonium], the IC50 was 56.5 µM.
For `CCC(C)[C@H](N)C(=O)OCCNC(=O)Cc1ccc(O)c(OC)c1` (stereo partly drawn) [(S)-1-{2-[2-(4-Hydroxy-3-methoxy-phenyl)-acetylamino]-ethoxycarbonyl}-2-methyl-butyl-ammonium], the IC50 was 45 µM.
With `CCC(C)[C@H](N)C(=O)OCCN(O)C(=O)c1ccc(OC)c(O)c1` (stereo partly drawn) [(S)-1-{2-[Hydroxy-(3-hydroxy-4-methoxy-benzoyl)-amino]-ethoxycarbonyl}-2-methyl-butyl-ammonium] the IC50 was 4.5 µM.
With `CCC(C)[C@H](N)C(=O)OCCN(O)C(=O)c1ccc(O)c(OC)c1` (stereo partly drawn) [(S)-1-{2-[Hydroxy-(4-hydroxy-3-methoxy-benzoyl)-amino]-ethoxycarbonyl}-2-methyl-butyl-ammonium] the IC50 was 12.8 µM.

Molecular target: not listed separately
Test: Inhibitory concentration against methionyl-tRNA synthetase was determined by measuring decrease of the aminoacylation product [35S]- methionyl tRNA of Escherichia coli
Compound `COc1cc(C2=N[C@@H](COC(=O)[C@@H](N)CCSC)CO2)ccc1O` [(S)-1-[(R)-2-(4-Hydroxy-3-methoxy-phenyl)-4,5-dihydro-oxazol-4-ylmethoxycarbonyl]-3-methylsulfanyl-propyl-ammonium] has an IC50 of 39 µM.

Molecular target: Methionine--tRNA ligase (Escherichia coli) (UniProt P00959)
Sequence (P00959 whole entry, looked up): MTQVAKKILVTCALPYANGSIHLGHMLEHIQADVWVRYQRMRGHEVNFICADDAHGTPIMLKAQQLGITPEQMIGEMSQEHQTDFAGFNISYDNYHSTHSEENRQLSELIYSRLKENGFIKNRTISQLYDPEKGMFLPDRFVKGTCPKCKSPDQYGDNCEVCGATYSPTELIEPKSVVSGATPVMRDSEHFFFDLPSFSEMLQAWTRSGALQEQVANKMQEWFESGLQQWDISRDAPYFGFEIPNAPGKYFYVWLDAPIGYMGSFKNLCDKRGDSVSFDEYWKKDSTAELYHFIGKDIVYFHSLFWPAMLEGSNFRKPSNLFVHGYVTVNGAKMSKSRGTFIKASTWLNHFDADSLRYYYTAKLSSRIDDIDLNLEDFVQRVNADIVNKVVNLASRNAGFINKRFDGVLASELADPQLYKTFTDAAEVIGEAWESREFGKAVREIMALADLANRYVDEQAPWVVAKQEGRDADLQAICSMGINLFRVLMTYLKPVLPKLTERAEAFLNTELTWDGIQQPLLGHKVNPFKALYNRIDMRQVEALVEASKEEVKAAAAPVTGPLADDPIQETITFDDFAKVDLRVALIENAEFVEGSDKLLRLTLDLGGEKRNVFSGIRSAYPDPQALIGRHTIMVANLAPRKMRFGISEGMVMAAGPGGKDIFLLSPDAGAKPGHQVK
Test: as above
In the case of `COc1ccc(CC(=O)N(O)CCOC(=O)[C@@H](N)CCSC)cc1O` [(S)-1-(2-{Hydroxy-[2-(3-hydroxy-4-methoxy-phenyl)-acetyl]-amino}-ethoxycarbonyl)-3-methylsulfanyl-propyl-ammonium], the IC50 is reported as 87 µM.
With `COc1cc(CC(=O)N(O)CCOC(=O)[C@@H](N)CCSC)ccc1O` [(S)-1-(2-{Hydroxy-[2-(4-hydroxy-3-methoxy-phenyl)-acetyl]-amino}-ethoxycarbonyl)-3-methylsulfanyl-propyl-ammonium] the IC50 was 128 µM.
In the case of `COc1ccc(C(=O)NCCOC(=O)[C@@H](N)CCSC)cc1O` [(S)-1-[2-(3-Hydroxy-4-methoxy-benzoylamino)-ethoxycarbonyl]-3-methylsulfanyl-propyl-ammonium], the IC50 is reported as 78 µM.
`COc1cc(C(=O)NCCOC(=O)[C@@H](N)CCSC)ccc1O` [(S)-1-[2-(4-Hydroxy-3-methoxy-benzoylamino)-ethoxycarbonyl]-3-methylsulfanyl-propyl-ammonium] showed an IC50 of 60 µM.
For `COc1ccc(C2=NOC(COC(=O)[C@@H](N)CCSC)C2)cc1O` (stereo partly drawn) [(S)-1-[3-(3-Hydroxy-4-methoxy-phenyl)-4,5-dihydro-isoxazol-5-ylmethoxycarbonyl]-3-methylsulfanyl-propyl-ammonium], the IC50 was 47 µM.
With `COc1cc(C2=NOC(COC(=O)[C@@H](N)CCSC)C2)ccc1O` (stereo partly drawn) [(S)-1-[3-(4-Hydroxy-3-methoxy-phenyl)-4,5-dihydro-isoxazol-5-ylmethoxycarbonyl]-3-methylsulfanyl-propyl-ammonium] the IC50 was 58 µM.
Work on `COc1cc(C2=N[C@H](COC(=O)[C@@H](N)CCSC)CO2)ccc1O` [(S)-1-[(S)-2-(4-Hydroxy-3-methoxy-phenyl)-4,5-dihydro-oxazol-4-ylmethoxycarbonyl]-3-methylsulfanyl-propyl-ammonium] yielded an IC50 of 33.5 µM.
In the case of `COc1ccc(CC(=O)NCCOC(=O)[C@@H](N)CCSC)cc1O` [(S)-1-{2-[2-(3-Hydroxy-4-methoxy-phenyl)-acetylamino]-ethoxycarbonyl}-3-methylsulfanyl-propyl-ammonium], the IC50 is reported as 164 µM.
`COc1cc(CC(=O)NCCOC(=O)[C@@H](N)CCSC)ccc1O` [(S)-1-{2-[2-(4-Hydroxy-3-methoxy-phenyl)-acetylamino]-ethoxycarbonyl}-3-methylsulfanyl-propyl-ammonium] gave an IC50 of 94 µM.
For `COc1ccc(C(=O)N(O)CCOC(=O)[C@@H](N)CCSC)cc1O` [(S)-1-{2-[Hydroxy-(3-hydroxy-4-methoxy-benzoyl)-amino]-ethoxycarbonyl}-3-methylsulfanyl-propyl-ammonium], the IC50 was 72 µM.
`COc1cc(C(=O)N(O)CCOC(=O)[C@@H](N)CCSC)ccc1O` [(S)-1-{2-[Hydroxy-(4-hydroxy-3-methoxy-benzoyl)-amino]-ethoxycarbonyl}-3-methylsulfanyl-propyl-ammonium] gave an IC50 of 32.5 µM.
